In data set [1] the target is Kv1.3 (Homo sapiens, UniProt P22001). The data set can be described thus: Kv1.3 channel block, estimated Kd (Table 1). To be noted: for Block phasic or not: Kv1.3. The class given is binding.
Data set [2] in a line: Cytotoxicity in vitro (remark in Table 1, summary of Table 2). The class given is cell-based. To be noted: for Cytotoxicity (remark in Table 1): cells not given. The procedure: (§1) Jurkat E6-1 and MEL were seeded at 5×10^5 cells/ml in twelve-well plates. Drug (100 nM, 1 μM, 2.5 μM and 10 μM) was added in a final DMSO concentration of 0.1%. After 48 h of incubation, cells were harvested by sucking them off the plates. Cells were centrifuged, resuspended in 0.5 ml PBS containing 1 μg/ml propidium iodide (PI), and red fluorescence measured on a FACScan flow cytometer (Becton Dickinson) after 20 min (10^4 cells of every sample being analyzed). The percentage of dead cells was determined by their PI uptake. Incubation with 20% DMSO served as a control for setting the gates of the flow cytometer for dead cells.

Data set [3] deals with Jurkat E6-1. The data set can be described thus: Flow cytometric measurement of cell viability (PI uptake), Jurkat T-cells. The data set is classed as cell-based. To be noted: 48 h. The procedure:
(§2) Flow Cytometric Measurement of Cell Viability
as §1

Data set [4] has as its target Kv1.5 (Homo sapiens, UniProt P22460). As to the kind of experiment: Kv1.5 channel block, estimated Kd (Table 1). The data set is classed as binding.
The subject of data set [5] is MEL cells. As to the kind of experiment: Flow cytometric measurement of cell viability (PI uptake), MEL cells. The class given is cell-based. To be noted: 48 h. The procedure:
as §2, §1
(In general: Flow cytometry measures light scatter and fluorescence of single cells or particles in a stream.)

For data set [6], the system named is human peripheral blood lymphocytes. The data set can be described thus: Proliferation test, [3H]-thymidine incorporation assay, anti-CD3 stimulated. The class given is cell-based. To be noted: for EC50: Homo sapiens, Lymphocyte, anti-CD3 stimulation, 48 h, read-out: EC50, suppression of proliferation of human peripheral blood lymphocytes. As for the experimental part: Proliferation Test [^3H]-Thymidine Incorporation Assay
Resting peripheral blood mononuclear cells from healthy volunteers were seeded at 2×10^5 cells per well in medium (RPMI 1640 supplemented 10% fetal calf serum, 2 mM glutamine, 1 mM sodium pyruvate, 1% nonessential amino acids, 100 units/ml penicillin, 100 μg/ml streptomycin and 50 μM β-mercaptoethanol) in flat-bottom 96 well plates (final volume 200 μl). Cells pre-incubated with drug (60 min), were stimulated with 5 ng/ml anti-CD3 Ab) for 48 h. [^3H]-Thymidine (1 μCi per well) was added for the last 6 h. Cells were harvested onto glass fibre filters and radioactivity measured in a scintillation counter. All experiments were done in triplicate. Results are reported as normalised for maximum [^3H]-thymidine incorporation for controls.

Data set [7] deals with mice. As to the kind of experiment: Toxicity on intravenous injection into mice. To be noted: injected intravenously, dose not stated. The data set is classed as in vivo.
[8] abbreviates: Kv1.3, peak, read-out: Est. Kd, Kd peak.
Where [9] appears, read: Kv1.3, end, read-out: Est. Kd, Kd end.

Read-outs that look alike come from different tables or passages of the source.

Here are results for 33 molecules from US20050176813A1, “Novel chalcone derivatives and uses thereof” (priority 2002, published 2005).

Sequence of Kv1.3 (P22001 whole entry): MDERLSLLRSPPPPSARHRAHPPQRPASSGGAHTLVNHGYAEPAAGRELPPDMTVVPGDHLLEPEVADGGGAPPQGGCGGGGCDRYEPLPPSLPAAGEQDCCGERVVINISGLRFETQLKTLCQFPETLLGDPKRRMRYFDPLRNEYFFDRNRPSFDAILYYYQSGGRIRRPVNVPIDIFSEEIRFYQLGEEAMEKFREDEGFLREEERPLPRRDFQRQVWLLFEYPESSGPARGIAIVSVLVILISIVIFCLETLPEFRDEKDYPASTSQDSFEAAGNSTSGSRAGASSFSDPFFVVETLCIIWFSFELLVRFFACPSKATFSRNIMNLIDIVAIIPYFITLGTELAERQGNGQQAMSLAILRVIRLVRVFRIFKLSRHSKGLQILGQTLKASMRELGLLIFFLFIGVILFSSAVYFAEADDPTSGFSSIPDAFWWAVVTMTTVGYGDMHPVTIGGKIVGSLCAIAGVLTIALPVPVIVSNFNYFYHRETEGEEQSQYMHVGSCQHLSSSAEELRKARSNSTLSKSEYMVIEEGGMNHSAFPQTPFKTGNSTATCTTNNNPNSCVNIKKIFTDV
Sequence of Kv1.5 (P22460 whole entry): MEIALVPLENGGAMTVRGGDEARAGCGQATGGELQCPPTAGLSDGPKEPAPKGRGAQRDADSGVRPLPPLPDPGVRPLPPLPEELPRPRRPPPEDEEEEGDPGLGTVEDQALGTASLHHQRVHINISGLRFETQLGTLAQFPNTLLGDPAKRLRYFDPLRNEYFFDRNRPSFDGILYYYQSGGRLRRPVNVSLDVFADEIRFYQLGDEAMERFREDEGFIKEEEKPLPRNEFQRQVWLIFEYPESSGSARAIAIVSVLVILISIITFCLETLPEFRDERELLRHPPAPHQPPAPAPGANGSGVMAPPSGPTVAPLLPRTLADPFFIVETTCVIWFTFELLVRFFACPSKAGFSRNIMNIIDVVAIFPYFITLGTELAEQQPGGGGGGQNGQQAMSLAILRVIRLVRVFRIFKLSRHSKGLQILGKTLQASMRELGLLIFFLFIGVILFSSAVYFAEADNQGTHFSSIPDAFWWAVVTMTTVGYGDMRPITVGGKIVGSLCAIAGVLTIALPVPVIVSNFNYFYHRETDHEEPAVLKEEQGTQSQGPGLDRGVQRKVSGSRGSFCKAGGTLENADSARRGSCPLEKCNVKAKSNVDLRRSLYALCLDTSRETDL

What is called melting point is the temperature, or range, at which the solid turns liquid. By Kd is commonly meant the concentration at which binding is half-saturated. For the molecule `COc1c(C(=O)/C=C/c2ccc(-c3ccccc3)cc2)c(O)c(OC)c2occc12` [Example 5], the melting point lay within 122 to 124 °C. The “Block phasic or not” value in data set [1] was “not phasic”. In addition, the Kd in data set [1] (setting [8]) is 30 µM.

As for `COc1c(C(=O)/C=C/c2ccccc2C(F)(F)F)c(O)c(OC)c2occc12` [Example 31], the melting point was in the range of 150 to 151 °C. Besides, the “Block phasic or not” value in data set [1] is listed as “not phasic”. Moreover, in data set [1] (setting [8]), the equilibrium dissociation constant (Kd) was 40 µM.

For `COc1c(C(=O)/C=C/c2cc(Br)cs2)c(O)c(OC)c2occc12` [Example 54], in data set [2], the “Cytotoxicity (remark in Table 1)” value is “Cytotoxic Mp 139 Brown needles”. The dissociation constant (Kd) is 0.25 µM in data set [1] (setting [9]) and 4 µM in data set [1] (setting [8]).

Turning to `COc1c(C(=O)/C=C/c2cccc(Oc3ccc(Cl)cc3)c2)c(O)c(OC)c2occc12` [Example 35], the melting point lay within 107 to 108 °C. In addition, in data set [1] (at 5 μM), the “Effect on Kv1.3” value is given as “no effect at 5 μM Not tested against other channels”.

Consider `COc1c(C(=O)/C=C/c2cccc(C)c2)c(O)c(OC)c2occc12` [Example 22], for which the melting point lay within 97 to 98 °C. In data set [1] (setting [9]), the dissociation constant (Kd) is 0.3 µM. Also, in data set [1] (setting [8]), the Kd was 1.5 µM.

Turning to `COc1c(C(=O)/C=C/c2cccc(C)n2)c(O)c(OC)c2occc12` [Example 50], the melting point fell in the range of 86 to 87 °C. For the same molecule, in data set [1], the “Block phasic or not” value is “not phasic”. The Kd in data set [1] (setting [8]) was 12 µM.

Molecule `COc1ccccc1/C=C/C(=O)c1c(O)c(OC)c2occc2c1OC` [Example 25] showed a melting point of 117 to 118 °C. Moreover, the Kd in data set [1] (setting [9]) is 1 µM. Further, the Kd in data set [1] (setting [8]) was 5 µM.

Take `COc1c(C(=O)/C=C/c2cccc([N+](=O)[O-])c2)c(O)c(OC)c2occc12` [Example 28]: the melting point lay in the range of 97 to 98 °C. Moreover, the block in data set [1] (Kv1.3, at 5 μM) is 5-10% block at 5 μM.

Take `COc1c(C(=O)/C=C/c2ccccc2Cl)c(O)c(OC)c2occc12` [Example 7]: the melting point lay in the range of 160 to 161 °C. Also, in data set [1], the “Block phasic or not” value is “not phasic”. Also, in data set [1] (setting [8]), the Kd was 12 µM.

`COc1c(C(=O)/C=C/c2cccs2)c(O)c(OC)c2occc12` [Example 53]: the “Cytotoxicity (remark in Table 1)” value in data set [2] is on record as “Cytotoxic Mp 129 Red needles”. Further, the Kd in data set [1] (setting [9]) was 0.3 µM; in data set [1] (setting [8]), 1.75 µM.

`COc1c(C(=O)/C=C/c2ccc(C#N)cc2)c(O)c(OC)c2occc12` [Example 11] yielded a melting point of 196 to 198 °C. The “Block phasic or not” value in data set [1] is “not phasic”. For the same molecule, the equilibrium dissociation constant (Kd) in data set [1] (setting [8]) was 12 µM.

In turn, `COc1c(C(=O)/C=C/c2cccn2C)c(O)c(OC)c2occc12` [Example 52] registered a melting point of 87 to 88 °C. The Kd in data set [1] (setting [9]) is 15 µM. The dissociation constant Kd in data set [1] (setting [8]) is 40 µM.

`COc1cccc(/C=C/C(=O)c2c(O)c(OC)c3occc3c2OC)c1` (single isomer, unassigned) [Example 24]: the “percentage of dead cells (PI uptake)” value is 2.41% in data set [3] (100 nM); 2.81% in data set [3] (1 μM); 2.31% in data set [3] (2.5 μM); 9.8% in data set [3] (10 μM); 3.53% in data set [5] (100 nM); 3.73% in data set [5] (1 μM). Besides, the entries for the “percentage of dead cells (PI uptake)” value in data set [5] (2.5 μM) and in data set [5] (10 μM) were 5.26% and 3.00%, respectively. In addition, the dissociation constant (Kd) was 6 µM in data set [4] (Kv1.5, end, read-out: Est. Kd, Kd end); 36 µM in data set [4] (Kv1.5, peak, read-out: Est. Kd, Kd peak); 0.8 µM in data set [1] (Kv1.3, area, read-out: Est. Kd, Kd area); 0.25 to 0.3 µM in data set [1] (setting [9]); 0.9 to 1.1 µM in data set [1] (setting [8]). In addition, the “Cytotoxicity in-vitro (summary of Table 2)” value in data set [2] (MEL and Jurkat cells, Table 2) is recorded as “non-cytotoxic”. Further, in data set [6] (FIG. 1), the “Antiproliferative potency compared with Example 1” value is “even more potently antiproliferative”. For the same molecule, the EC50 in data set [6] was 1 µM. In addition, the Toxicity in mice result in data set [7] was “non-toxic”.

The molecule `CCCOc1ccc(/C=C/C(=O)c2c(O)c(OC)c3occc3c2OC)cc1` [Example 4] registered a melting point of 74 to 75 °C. For the same molecule, in data set [1], the “Block phasic or not” value is “not phasic”. Besides, the Kd in data set [1] (setting [8]) was 45 µM.

Regarding `COc1c(C(=O)/C=C/c2c[nH]c3ccccc23)c(O)c(OC)c2occc12` [Example 47], the melting point is 138 to 140 °C. The “Effect on Kv1.3” value in data set [1] (at 5 μM) is “no effect at 5 μM Not tested against other channels”.

On to `COc1c(C(=O)/C=C/c2ccc(C)s2)c(O)c(OC)c2occc12` [Example 55], for which the “Cytotoxicity (remark in Table 1)” value in data set [2] is recorded as “Cytotoxic Mp 103 Orange prisms”. Moreover, the results for the Kd in data set [1] (setting [9]) and in data set [1] (setting [8]) were 0.5 µM and 3 µM, respectively.

As to `COc1c(C(=O)/C=C/c2ccc(NC(C)=O)cc2)c(O)c(OC)c2occc12` [Example 6], the melting point lay in the range of 180 to 181 °C. Further, the “Block phasic or not” value in data set [1] was “not phasic”. The Kd in data set [1] (setting [8]) is 35 µM.

Regarding `COc1c(C(=O)/C=C/c2ccccc2[N+](=O)[O-])c(O)c(OC)c2occc12` [Example 27], the melting point lay in the range of 131 to 132 °C. The Kd in data set [1] (setting [9]) is 5 µM. Further, the dissociation constant Kd in data set [1] (setting [8]) is 15 µM.

`COc1c(C(=O)/C=C/c2cccc(C#N)c2)c(O)c(OC)c2occc12` [Example 10]: the melting point is 182 to 183 °C. Moreover, in data set [1], the “Block phasic or not” value is “not phasic”. Also, the dissociation constant (Kd) in data set [1] (setting [8]) is 20 µM.

As for `COc1c(C(=O)/C=C/c2ccc3c(c2)OCO3)c(O)c(OC)c2occc12` [Example 26], the melting point lay within 139 to 140 °C. The Kd in data set [1] (setting [9]) is 1.5 µM. In data set [1] (setting [8]), the dissociation constant Kd is 9 µM.

Regarding `COc1c(C(=O)/C=C/C=C/c2ccccc2)c(O)c(OC)c2occc12` [Example 40], the “Effect on Kv1.3” value in data set [1] (at 1 μM) is listed as “no effect at 1 μM Not tested against other channels”.

`COc1c(C(=O)/C=C/c2ccc(C)cc2)c(O)c(OC)c2occc12` [Example 23]: the Kd was 0.1 µM in data set [1] (setting [9]) and 1.5 µM in data set [1] (setting [8]). Besides, the EC50 in data set [6] was found to be 1.5 µM.

Take `COc1c(C(=O)/C=C/c2c(F)c(F)c(F)c(F)c2F)c(O)c(OC)c2occc12` [Example 30]: the melting point lay in the range of 112 to 114 °C. Further, in data set [1] (setting [9]), the Kd was 3.5 µM. Besides, the Kd in data set [1] (setting [8]) is 5 µM.

As for `COc1c(C(=O)/C=C/c2ccc(N(C)C)cc2)c(O)c(OC)c2occc12` [Example 42], the Kd in data set [1] (setting [9]) was 5 µM; in data set [1] (setting [8]), 14 µM.

As to `COc1c(C(=O)/C=C/c2ccco2)c(O)c(OC)c2occc12` [Example 45], the dissociation constant (Kd) in data set [1] (setting [9]) was 4 µM; in data set [1] (setting [8]), 20 µM.

On to `COc1c(C(=O)/C=C/c2ccccc2O)c(O)c(OC)c2occc12` [Example 43], for which the Kd in data set [1] (setting [9]) was 8 µM; in data set [1] (setting [8]), 16 µM.

As to `CCN(CC)CCOc1ccc(/C=C/C(=O)c2c(O)c(OC)c3occc3c2OC)cc1` [Example 12], in data set [1] (at 10 μM), the “Effect on Kv1.3” value is 10 μM no effect Not tested against other channels.

As to `COc1c(C(=O)/C=C/c2ccccc2)c(OCc2ccccc2)c(OC)c2occc12` [Example 60], the dissociation constant (Kd) is 0.2 µM in data set [1] (setting [9]) and 10 µM in data set [1] (setting [8]).

Turning to `COc1c(C(=O)/C=C/c2cccc(F)c2)c(O)c(OC)c2occc12` [Example 16], the melting point is 121 to 123 °C. Besides, the Kd in data set [1] (setting [9]) was 4 µM. Also, the Kd in data set [1] (setting [8]) was 35 µM.

Regarding `CCOc1ccc(/C=C/C(=O)c2c(O)c(OC)c3occc3c2OC)cc1` [Example 14], the Kd in data set [1] (setting [9]) was 1.5 µM; in data set [1] (setting [8]), 10 µM.

On to `COc1c(C(=O)/C=C/c2cccc(Oc3cccc(C(F)(F)F)c3)c2)c(O)c(OC)c2occc12` [Example 36], for which the “Effect on Kv1.3” value in data set [1] (at 5 μM) was “no effect at 5 μM Not tested against other channels”.

Molecule `COc1c(C(=O)/C=C/c2ccc(CO)o2)c(O)c(OC)c2occc12` [Example 46] yielded a melting point of 120 to 121 °C. For the same molecule, in data set [1] (at 20 μM), the “Effect on Kv1.3” value is “no effect at 20 μM Not tested against other channels”.

`COc1c(C(=O)/C=C/c2cccc(Oc3ccccc3)c2)c(O)c(OC)c2occc12` [Example 34]: in data set [1] (at 5 μM), the “Effect on Kv1.3” value is given as “no effect at 5 μM Not tested against other channels”.
